Results as given in US9579380B2, “Microporation of tissue for delivery of bioactive agents” (priority 1996, dated 2017).

What was measured:
healthy male volunteers = experiment: Alprostadil delivery through micropores on the penis shaft with ultrasonic transducer, clinical responses; assay type: in vivo, human; details: both subjects
Protocol: Alprostadil, or PGE1, is a prostaglandin used therapeutically to treat male erectile dysfunction via it's vasodilator behavior. The standard delivery mode for this drug is a direct injection into the base of the penis or via a suppository inserted into the urethra. A set of experiments were conducted with two healthy male volunteers. […] A concentrated solution of alprostadil was placed in a small reservoir patch placed on the poration site, an ultrasonic transducer was then placed on the top of the reservoir and activated and the subject's erectile and other clinical responses were recorded on video tape. Both subjects developed a significant amount of engorgement of the penis, estimated as achieving 70% of more of a full erection at the dose applied. In addition, a malar flush response to the systemic levels of the drug delivered was observed. […] Both the erectile response and the malar flush provide evidence of the delivery of a clinically active amount of the drug, a well know vasodilator.

[1] = human
[2] = Morphine delivery through porated volar forearm with positive pressure gradient, venous blood morphine; details: solution on porated volar forearm
Description: A solution of morphine is applied to a porated area on the volar forearm of the human subjects. A positive pressure gradient is used to provide a basal delivery rate of the morphine into the body, as determined by assay of venous blood draws at appropriate time intervals for the presence of morphine. […] Upon demand, an additional pressure bolus is applied to result in a spike in the delivery of the morphine. The additional pressure bolus is achieved in one test by use of ultrasound; or in another experiment by the use of a pressure spike.

[3] = test system: volar forearm of a healthy volunteer; experiment: Heparin delivery through micropores, passive or with iontophoresis, with microscopic examination of the site
Protocol: A heparin solution was applied to skin porated to a depth of approximately 100 μm, allowing either passive diffusion or coupled with iontophoresis (about 1 mA/cm^2) that was applied for a sufficient period of time to transport the heparin through the micropores into the underlying tissues. […] An experiment was conducted wherein a site on the volar forearm of a healthy volunteer was prepared by creating a matrix of 36 micropores within a 1 square cm area. A small reservoir containing a sodium heparin solution and the negative electrode for an iontophoretic system was attached to the site. The positive electrode was attached to the subject's skin some distance away using a hydrogel electrode obtained from Iomed, a commercial supplier of iontophoretic systems. The system was run for ten minutes at 0.2 milliamperes per square cm.

[4] = test system: healthy non-diabetic subject; experiment: Insulin delivery through porated skin, finger stick blood glucose; assay type: in vivo, human
Description: Insulin, like many compounds normally present in the healthy individual, is a polypeptide which must be maintained in individuals, such as diabetics who need exogenous insulin, at both a basal level and be given in a pulsatile bolus fashion in response to meals and the subject's activity levels. Currently this is achieved via subcutaneous injections of fast acting and slow acting formulations. Because of the molecular weight of insulin, typically ˜6000, it is not able to be delivered at clinically useful levels with traditional transdermal or transmucosal methods. However, by opening the micropores through the barrier layers of the skin or mucosa, a clear path is provided allowing the delivery of the insulin into the viable tissues wherein the interstitial fluid present in these tissues will allow diffusion (including osmotically driven) of the insulin to and into the lymph system and capillary bed, delivering clinically useful amounts. A concentrated insulin solution containing 3500 IU/ml of recombinant human insulin purchased from Boehringer-Mannhein Co., was applied in a reservoir to a porated of the subject's skin on the volar forearm covering 4 square cm. The healthy, person, non-diabetic, subject fasted for 14 hours prior to the start of the experiment. Intravenous and finger stick blood samples were drawn periodically prior to and after the delivery phase began and assayed for glucose, insulin and C-peptide.
The use of liposomes, lipid complexes, microspheres including nanospheres, PEGellated compounds (compounds combined with polyethylene glycol) and other microparticles as part of a drug delivery system is well developed for many different specific applications. In particular, when dealing with a compound which is easily broken down by the endogenous components in the body's tissues such as protease, nuclease, or carbohydrase enzymes in the skin, tissues, the macrophages or other cells present in the blood stream or lymph, increases in bio-availability and/or sustained […]. A repeat of this procedure with the addition of ultrasound operating at 44 khz, and 0.2 watts/square cm indicated a more rapid delivery of the insulin as evidenced by the subject's glucose levels which dropped from 109 mg/dl to 78 mg/dl less than 30 minutes after the delivery began. As in the case of example 45, for heparin delivery, a low current iontophoretic system can be coupled with the micropores to facilitate a greater flux rate and provide the ability to modulate this flux rate by varying the current, allowing a delivery on demand type of system to be built. Previous work with insulin has typically shown that relatively high iontophoretic currents are required to overcome the strong barrier properties of the intact stratum corneum. […]

Question: For `CCCCC[C@H](O)/C=C/[C@H]1[C@H](O)CC(=O)[C@@H]1CCCCCCC(=O)O` [alprostadil, Alprostadil], which “engorgement of the penis, estimated share of a full erection” value (healthy male volunteers; 12 to 36 micropores, roughly 100 microns deep, on 1 square cm, concentrated solution plus ultrasonic transducer) is on record?
Answer: ≥ 70%

Question: What about the “malar flush response to systemic levels of the drug” value (healthy male volunteers; over a 30 to 60 minute delivery period) of the same molecule?
Answer: profound malar flush

Question: Which “lag time of pulse of indicator molecules on application of sonic energy” value [1] does the source give for `CN(C)c1ccc2nc3ccc(=[N+](C)C)cc-3sc2c1` [methylene blue, Methylene blue] here?
Answer: < 0.1 s

Question: And the “shutoff lag of pulse of indicator molecules on turning off sonic energy” value [1]?
Answer: < 0.1 s

Question: What about the “level of dye solution in receiver medium (no visual indication of dye flux)” value ([1]; 5 min) of the same molecule?
Answer: < 0.0015 % (v/v)

Question: For `CN1CC[C@]23c4c5ccc(O)c4O[C@H]2[C@@H](O)C=C[C@H]3[C@H]1C5` [morphine], which “basal level of morphine in venous blood” value [2] is on record?
Answer: 3 to 6 ng/mL

Question: Which results are given for heparin?
Answer: clotting of red cells in collected ISF ([3]; 36 micropores in 1 square cm, iontophoresis 0.2 milliamperes per square cm for ten minutes): no clotting took place; microscopic examination of the site ([3]; 36 micropores in 1 square cm, sodium heparin solution, iontophoresis 0.2 milliamperes per square cm for ten minutes): vasodilation of the capillaries; microscopic examination of the in vivo site ([3]; skin porated to approximately 100 μm, passive diffusion and iontophoresis (about 1 mA/cm^2)): increased capillary dilation and permeability

Question: Which results are given for insulin?
Answer: time to depression of glucose levels ([4]; 3500 IU/ml solution on 4 square cm porated volar forearm, passive): approximately 4 hours; finger stick blood glucose after depression ([4]; 3500 IU/ml solution on 4 square cm porated volar forearm, passive, fasted 14 hours, from 100 mg/dl at the start, over a ten minute cycle): 67 mg/dL; time to glucose drop after delivery began ([4]; with ultrasound at 44 khz and 0.2 watts/square cm): less than 30 minutes; glucose level after drop ([4]; with ultrasound at 44 khz and 0.2 watts/square cm, from 109 mg/dl): 78 mg/dL
